Assay results: PubChem BioAssay (NCI)
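48-hour exposure; five concentrations; linearly interpolated endpoints. Abbreviation: GI50, concentration required for 50% inhibition of growth. TGI marks complete inhibition of growth.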

Assays:
Test in all cases: NCI tumour cell line growth inhibition, 48 h
A549 NSCLC = test system: A549 NSCLC
BT-549 breast = test system: BT-549 breast
TK-10 renal = test system: TK-10 renal
SNB-19 CNS = test system: SNB-19 CNS
UACC-257 melanoma = test system: UACC-257 melanoma
SK-OV-3 ovarian = test system: SK-OV-3 ovarian
UACC-62 melanoma = test system: UACC-62 melanoma
NCI-H23 lung = test system: NCI-H23 lung
IGROV1 ovarian = test system: IGROV1 ovarian
HOP-62 NSCLC = test system: HOP-62 NSCLC

O=[N+]([O-])c1ccc(N(CCO)CCO)c2c1no[n+]2[O-]
GI50 (A549 NSCLC): 1.83 µM
TGI (A549 NSCLC): 8.92 µM
GI50 (BT-549 breast): 1.18 µM
TGI (BT-549 breast): 4 µM
GI50 (TK-10 renal): 2.2 µM
TGI (TK-10 renal): 8.22 µM
GI50 (SNB-19 CNS): 1.76 µM
TGI (SNB-19 CNS): 5.9 µM
GI50 (UACC-257 melanoma): 1.89 µM
TGI (UACC-257 melanoma): 6.54 µM
GI50 (SK-OV-3 ovarian): 1.21 µM
TGI (SK-OV-3 ovarian): 4.14 µM
GI50 (UACC-62 melanoma): 1.24 µM
TGI (UACC-62 melanoma): 3.56 µM
GI50 (NCI-H23 lung): 1.23 µM
TGI (NCI-H23 lung): 4.2 µM
GI50 (IGROV1 ovarian): 1.75 µM
TGI (IGROV1 ovarian): 7.42 µM
GI50 (HOP-62 NSCLC): 1.39 µM
TGI (HOP-62 NSCLC): 4.16 µM

O=C(c1cccs1)c1c(C(F)(F)F)n([O-])c2cc(F)c(F)cc2[n+]1=O
GI50 (A549 NSCLC): 6.16 µM
TGI (A549 NSCLC): 12.5 µM
GI50 (BT-549 breast): 1.91 µM
TGI (BT-549 breast): 3.24 µM
GI50 (TK-10 renal): 1.36 µM
TGI (TK-10 renal): 3.99 µM
GI50 (SNB-19 CNS): 6.01 µM
TGI (SNB-19 CNS): 8.76 µM
GI50 (UACC-257 melanoma): 3.11 µM
TGI (UACC-257 melanoma): 6.79 µM
GI50 (SK-OV-3 ovarian): 2.69 µM
TGI (SK-OV-3 ovarian): 5.85 µM
GI50 (UACC-62 melanoma): 1.54 µM
TGI (UACC-62 melanoma): 3.58 µM
GI50 (NCI-H23 lung): 2.26 µM
TGI (NCI-H23 lung): 4.94 µM
GI50 (IGROV1 ovarian): 1.86 µM
TGI (IGROV1 ovarian): 3.92 µM
GI50 (HOP-62 NSCLC): 3.77 µM
TGI (HOP-62 NSCLC): 6.21 µM

CN(C)CCCC1(c2ccc(F)cc2)OCc2cc(-c3ccc4cc[nH]c4c3)ccc21 (stereo not given)
GI50 (A549 NSCLC): 2.11 µM
TGI (A549 NSCLC): 4.57 µM
GI50 (BT-549 breast): 2.35 µM
TGI (BT-549 breast): 7.62 µM
GI50 (TK-10 renal): 2.03 µM
TGI (TK-10 renal): 4.09 µM
GI50 (SNB-19 CNS): 1.79 µM
TGI (SNB-19 CNS): 3.67 µM
GI50 (UACC-257 melanoma): 1.96 µM
TGI (UACC-257 melanoma): 3.91 µM
GI50 (SK-OV-3 ovarian): 3.38 µM
TGI (SK-OV-3 ovarian): 12.9 µM
GI50 (UACC-62 melanoma): 1.85 µM
TGI (UACC-62 melanoma): 3.77 µM
GI50 (NCI-H23 lung): 1.97 µM
TGI (NCI-H23 lung): 4.11 µM
GI50 (IGROV1 ovarian): 1.73 µM
TGI (IGROV1 ovarian): 3.61 µM
GI50 (HOP-62 NSCLC): 1.71 µM
TGI (HOP-62 NSCLC): 3.71 µM

N#CC1=C(N)Oc2c(sc3c(F)cccc23)C1c1ccc([N+](=O)[O-])cc1 (stereo not given)
GI50 (A549 NSCLC): 0.214 µM
TGI (A549 NSCLC): 2.37 µM
GI50 (BT-549 breast): 0.242 µM
TGI (BT-549 breast): 1.3 µM
GI50 (TK-10 renal): 0.609 µM
TGI (TK-10 renal): 3.12 µM
GI50 (SNB-19 CNS): 0.241 µM
TGI (SNB-19 CNS): 1.51 µM
GI50 (UACC-257 melanoma): 0.863 µM
TGI (UACC-257 melanoma): 2.9 µM
GI50 (SK-OV-3 ovarian): 0.308 µM
TGI (SK-OV-3 ovarian): 2.37 µM
GI50 (UACC-62 melanoma): 0.0863 µM
TGI (UACC-62 melanoma): 1.33 µM
GI50 (NCI-H23 lung): 0.284 µM
TGI (NCI-H23 lung): 1.46 µM
GI50 (IGROV1 ovarian): 0.152 µM
TGI (IGROV1 ovarian): 1.56 µM
GI50 (HOP-62 NSCLC): 0.228 µM
TGI (HOP-62 NSCLC): 1.79 µM

NC(=O)c1c(OCc2c(F)cc(Br)cc2F)nsc1NC(=O)NCCCCN1CCCC1
GI50 (A549 NSCLC): 2.97 µM
TGI (A549 NSCLC): > 10 µM
GI50 (BT-549 breast): 6.64 µM
TGI (BT-549 breast): > 10 µM
GI50 (TK-10 renal): 2.06 µM
TGI (TK-10 renal): 7.94 µM
GI50 (SNB-19 CNS): 2.27 µM
TGI (SNB-19 CNS): > 10 µM
GI50 (UACC-257 melanoma): 1.85 µM
TGI (UACC-257 melanoma): 3.94 µM
GI50 (SK-OV-3 ovarian): > 10 µM
TGI (SK-OV-3 ovarian): > 10 µM
GI50 (UACC-62 melanoma): 1.82 µM
TGI (UACC-62 melanoma): 3.93 µM
GI50 (NCI-H23 lung): 5.18 µM
TGI (NCI-H23 lung): > 10 µM
GI50 (IGROV1 ovarian): 0.327 µM
TGI (IGROV1 ovarian): 4.29 µM
GI50 (HOP-62 NSCLC): 1.58 µM
TGI (HOP-62 NSCLC): > 10 µM

O=c1cccc(C#CCCCCOC2CCCO2)o1 (stereo not given)
GI50 (A549 NSCLC): 9.16 µM
TGI (A549 NSCLC): > 48.8 µM
GI50 (BT-549 breast): 3.35 µM
TGI (BT-549 breast): 26.4 µM
GI50 (TK-10 renal): 13.4 µM
TGI (TK-10 renal): 35.6 µM
GI50 (SNB-19 CNS): > 28.6 µM
TGI (SNB-19 CNS): > 56.5 µM
GI50 (UACC-257 melanoma): 9.49 µM
TGI (UACC-257 melanoma): > 20.2 µM
GI50 (SK-OV-3 ovarian): > 30.4 µM
TGI (SK-OV-3 ovarian): > 54.1 µM
GI50 (UACC-62 melanoma): 15.9 µM
TGI (UACC-62 melanoma): > 56.8 µM
GI50 (NCI-H23 lung): 5 µM
TGI (NCI-H23 lung): 14.9 µM
GI50 (IGROV1 ovarian): 37.2 µM
TGI (IGROV1 ovarian): > 88.8 µM
GI50 (HOP-62 NSCLC): 7.88 µM
TGI (HOP-62 NSCLC): 18.2 µM

CS(=O)(=O)c1ccc(C(F)(F)F)cc1NC(=O)Nc1cnc(Oc2ccc(-c3cc(Cl)cnc3N)cc2)nc1
GI50 (A549 NSCLC): 3.07 µM
TGI (A549 NSCLC): > 32.1 µM
GI50 (BT-549 breast): 2.26 µM
TGI (BT-549 breast): 6.5 µM
GI50 (TK-10 renal): 2.21 µM
TGI (TK-10 renal): 6.92 µM
GI50 (SNB-19 CNS): 2.8 µM
TGI (SNB-19 CNS): 34 µM
GI50 (UACC-257 melanoma): 3.07 µM
TGI (UACC-257 melanoma): 11.5 µM
GI50 (SK-OV-3 ovarian): 3.31 µM
TGI (SK-OV-3 ovarian): 18 µM
GI50 (UACC-62 melanoma): 1.82 µM
TGI (UACC-62 melanoma): 4.72 µM
GI50 (NCI-H23 lung): 2.56 µM
TGI (NCI-H23 lung): 7.69 µM
GI50 (IGROV1 ovarian): 1.73 µM
TGI (IGROV1 ovarian): 6.04 µM
GI50 (HOP-62 NSCLC): 3.27 µM
TGI (HOP-62 NSCLC): 12.5 µM

O=[N+]([O-])c1ccc2nc(N/N=C/c3ccc(O)cc3)sc2c1
GI50 (A549 NSCLC): 3.52 µM
TGI (A549 NSCLC): 29.4 µM
GI50 (BT-549 breast): 12.3 µM
TGI (BT-549 breast): > 100 µM
GI50 (TK-10 renal): 3.97 µM
TGI (TK-10 renal): 29.8 µM
GI50 (SNB-19 CNS): 6.24 µM
TGI (SNB-19 CNS): > 100 µM
GI50 (UACC-257 melanoma): 9.09 µM
TGI (UACC-257 melanoma): 45 µM
GI50 (SK-OV-3 ovarian): 5.37 µM
TGI (SK-OV-3 ovarian): 48.9 µM
GI50 (UACC-62 melanoma): 4.46 µM
TGI (UACC-62 melanoma): 37 µM
GI50 (NCI-H23 lung): 5.22 µM
TGI (NCI-H23 lung): > 100 µM
GI50 (IGROV1 ovarian): 3.84 µM
TGI (IGROV1 ovarian): > 100 µM
GI50 (HOP-62 NSCLC): 8.82 µM
TGI (HOP-62 NSCLC): 30.7 µM

O=C1Nc2ccccc2SC1C1SC(=S)N(Cc2ccccc2)C1=O (stereo not given)
GI50 (A549 NSCLC): 16 µM
TGI (A549 NSCLC): > 51.4 µM
GI50 (BT-549 breast): 5.71 µM
TGI (BT-549 breast): 22.3 µM
GI50 (TK-10 renal): 5.71 µM
TGI (TK-10 renal): 22 µM
GI50 (SNB-19 CNS): 11.2 µM
TGI (SNB-19 CNS): 29.5 µM
GI50 (UACC-257 melanoma): 20.1 µM
TGI (UACC-257 melanoma): 39 µM
GI50 (SK-OV-3 ovarian): 22.9 µM
TGI (SK-OV-3 ovarian): > 100 µM
GI50 (UACC-62 melanoma): 10.6 µM
TGI (UACC-62 melanoma): 23.3 µM
GI50 (NCI-H23 lung): 11.8 µM
TGI (NCI-H23 lung): 35.2 µM
GI50 (IGROV1 ovarian): 3.37 µM
TGI (IGROV1 ovarian): 16.5 µM
GI50 (HOP-62 NSCLC): 6.62 µM
TGI (HOP-62 NSCLC): 19.7 µM
